Measurements from US12600705B2, “Heat shock protein modulators and anti-Huntington disease therapeutic agents” (UNIVERSITY OF PITTSBURGH-OF THE COMMONWEALTH SYSTEM OF …, priority 2020, dated 2026).

Experiments:
[1] = tested on: HEK293 cells that express an HTT exon containing 17 glutamine repeats (HTT17Q-mCherry); assay: Huntington's Disease (HD) model: protein aggregates (puncta) per cell in HEK293H cells transfected with HTT17Q-mCherry; conditions: 6 h; for Effectiveness compared to MAL1-271 (Less/Similar/More) / Effectiveness compared to the MAL1-271 positive control: 10 μM; for Effectiveness compared to MAL1-271 (Less/Similar/More): blunting formation of toxic aggregates; for Effectiveness compared to the MAL1-271 positive control: Example 2; for Effect on aggregate suppression compared to the MAL1-271 positive control: Example 1, FIG. 2, 10 μM compound
Method: Cells were stained for confocal microscope imaging with 4′,6-diamidino-2-phenylindole (DAPI), a fluorescent dye with high affinity to adenine-thymine rich DNA regions. A bright spot detection tool was used to identify and quantify the number of protein aggregates (“dots”) per cell.
Biological Assays: For HD assays, HEK293H cells were grown in DMEM (Sigma-Aldrich, Saint Louis, MO) supplemented with 10% fetal bovine serum (GE Healthcare Hyclone) and 1% penicillin/streptomycin (Thermo Fisher Scientific, Waltham, MA) at 37° C. and at a 5% CO2 atmosphere. Cells were seeded at 250,000 cells/plate in Poly-D-Lysine Coated 35 mm MatTek dishes (P35GC-1.5-10-C, MatTek Corporation, Ashland, MA). After 24 h growth, a total of 4 μg of mCherry tagged-polyglutamine-expanded (17-polyQ-expanded) huntingtin (HTT) was introduced using Lipofectamine 2000 (Invitrogen, Thermo Fisher Scientific) according to the manufacturer's instructions. […] The following day, cells were treated with vehicle (DMSO) as control or with 10 μM of the examined compounds for 6 h. The cells were then washed with PBS and fixed in 4% formaldehyde for 15 min at room temperature. Finally, cells were stained with DAPI (1:250 in PBS) for 4 h and maintained in PBS for confocal microscope imaging.
Complete volumes of cells were acquired at 0.5-μm steps, and volumes were reconstructed and analyzed using Nikon's NIS-Elements software (Nikon Instrument, Melville, NY). Bright spot detection tool was used to identify and quantify the number of protein aggregates (“dots”) per cell. A non-parametric Kruskal-Wallis test analysis was performed using Prism software (GraphPad, La Jolla, CA). Statistically significant differences between control (DMSO) and compound treated samples are indicated by asterisks in figure. To obtain representative images from this experiment, maximum intensity projections of 0.5-μm steps though the entire cell were generated using Nikon's NIS-Elements software.
Cells were stained for confocal microscope imaging with 4′,6-diamidino-2-phenylindole (DAPI) and bright spot detection tool was used to identify and quantify the number of protein aggregates (“dots”) per cell.

HDAC 6 = molecular target: T1, HDAC 6 (Homo sapiens, UniProt Q9UBN7); assay: HDAC 6 assay (BPS Bioscience kit); conditions: read-out: Percent Inhibition
T1 sequence (Q9UBN7 1-1215): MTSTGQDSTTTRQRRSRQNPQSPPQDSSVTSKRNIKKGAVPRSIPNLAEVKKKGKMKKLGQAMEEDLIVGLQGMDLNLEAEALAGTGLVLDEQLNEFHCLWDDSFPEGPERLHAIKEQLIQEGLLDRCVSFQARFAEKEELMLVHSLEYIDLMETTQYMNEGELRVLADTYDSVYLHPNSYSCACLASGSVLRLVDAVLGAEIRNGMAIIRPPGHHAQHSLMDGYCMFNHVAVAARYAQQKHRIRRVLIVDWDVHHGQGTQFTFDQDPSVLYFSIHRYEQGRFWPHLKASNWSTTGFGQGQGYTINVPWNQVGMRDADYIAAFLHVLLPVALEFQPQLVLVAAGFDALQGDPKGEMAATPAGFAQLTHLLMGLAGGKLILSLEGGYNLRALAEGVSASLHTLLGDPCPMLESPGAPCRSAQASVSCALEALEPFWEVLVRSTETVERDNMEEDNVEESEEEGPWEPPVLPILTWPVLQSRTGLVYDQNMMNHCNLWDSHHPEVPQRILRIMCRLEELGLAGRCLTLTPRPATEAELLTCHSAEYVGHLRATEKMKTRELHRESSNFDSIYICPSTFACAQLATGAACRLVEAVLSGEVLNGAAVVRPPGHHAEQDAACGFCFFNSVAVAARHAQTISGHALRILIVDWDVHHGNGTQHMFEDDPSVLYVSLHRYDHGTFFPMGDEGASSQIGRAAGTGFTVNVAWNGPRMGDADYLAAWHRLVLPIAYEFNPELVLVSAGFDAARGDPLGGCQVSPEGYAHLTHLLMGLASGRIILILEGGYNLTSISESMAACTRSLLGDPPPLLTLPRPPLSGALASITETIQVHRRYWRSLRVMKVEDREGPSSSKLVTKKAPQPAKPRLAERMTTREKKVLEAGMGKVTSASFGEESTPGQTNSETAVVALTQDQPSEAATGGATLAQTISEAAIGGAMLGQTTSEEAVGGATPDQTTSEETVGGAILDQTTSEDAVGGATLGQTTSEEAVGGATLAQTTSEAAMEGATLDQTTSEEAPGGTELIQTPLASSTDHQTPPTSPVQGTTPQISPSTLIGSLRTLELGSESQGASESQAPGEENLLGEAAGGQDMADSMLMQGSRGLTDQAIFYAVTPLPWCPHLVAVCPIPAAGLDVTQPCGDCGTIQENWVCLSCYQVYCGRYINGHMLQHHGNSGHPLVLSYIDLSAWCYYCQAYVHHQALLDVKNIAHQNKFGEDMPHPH
Method: (§1) For HDAC 4-8 assays, kits from BPS Bioscience (https://bpsbioscience.com/) were used and their recommended protocols followed. […] Each compound was dissolved in DMSO to generate a 100 μM stock solution, then diluted using HPLC-grade water to prepare 10 μM, 2 μM, and 1 μM solutions. These solutions were used for the assays. […] Assays utilized a BioTek Synergy H1 microplate reader and black Nunc MicroWell 96-well optical-bottom plates with polymer base.
(§2) HDAC 4 (and, by analogy, HDAC 5, 6, 7, and 8): 40 μL of the parent solution was added to each well on the plate. The parent solution was prepared from a fluorogenic HDAC substrate, a 1 mg/mL solution of bovine serum albumin (BSA) in water, and HDAC assay buffer. 5 μL of the inhibitor buffer (10% DMSO in water) was added to the wells designated as “Blank” and “Positive Control” (no inhibitor). 5 μL of the test compound was added to each well designated as “Test Inhibitor”. Different concentrations of TSA (for a standard curve) was added to each well designated as “Standard.” 5 μL of HDAC assay buffer was added to the “Blank” wells. Then, 5 μL of HDAC 4 human recombinant enzyme was added to the wells designated as “Positive Control”, “Test Inhibitor”, and “Standard.” The plate was then warmed in an incubator at 37° C. with a rocker platform for 30 min After the incubation, 50 μL of 2×HDAC Developer solution was added to each well. The plate was returned to the incubator and was shaken on the rocker for an additional 15 min. at room temperature. Afterwards, the plate was analyzed using a BioTek Synergy H1 microplate reader, taking two independent readings per well that were subsequently averaged.

HDAC 8 = molecular target: T2, HDAC 8 (Homo sapiens, UniProt Q9BY41); assay: HDAC 8 assay (BPS Bioscience kit); conditions: read-out: Percent Inhibition
T2 sequence (Q9BY41 1-377): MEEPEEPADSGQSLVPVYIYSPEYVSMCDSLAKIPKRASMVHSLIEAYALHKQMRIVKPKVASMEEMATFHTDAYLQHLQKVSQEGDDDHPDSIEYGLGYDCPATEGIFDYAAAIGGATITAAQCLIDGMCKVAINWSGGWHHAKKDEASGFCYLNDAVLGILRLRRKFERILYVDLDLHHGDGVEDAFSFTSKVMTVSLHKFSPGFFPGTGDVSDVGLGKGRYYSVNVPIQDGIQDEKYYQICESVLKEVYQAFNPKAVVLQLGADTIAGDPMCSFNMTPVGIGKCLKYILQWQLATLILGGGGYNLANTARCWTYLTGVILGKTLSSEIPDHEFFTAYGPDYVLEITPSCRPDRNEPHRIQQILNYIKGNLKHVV
Method: as §1, §2

HDAC 1-3 = HDAC 1-3 assay (BioVision kit, HeLa nuclear extract); conditions: for Percent inhibition HDAC 1-3: Compound tested at 1 uM
Method: For HDAC 1-3 assays, kits from BioVision Incorporated (https://www.biovision.com/) were used and their recommended protocols followed. […] Each compound was dissolved in DMSO to generate a 100 μM stock solution, then diluted using HPLC-grade water to prepare 10 μM, 2 μM, and 1 μM solutions. These solutions were used for the assays. […] Assays utilized a BioTek Synergy H1 microplate reader and black Nunc MicroWell 96-well optical-bottom plates with polymer base.
HDAC 1-3: 10 μL of each diluted compound (10 μM) and 40 μL of HPLC-grade water were mixed and added into a well on the plate. […] Then, 50 μL of the reaction mixture was added to each well and the solution was mixed thoroughly. The reaction mixture consisted of 500 μL of 10×HDAC Assay buffer, 100 μL of HeLa nuclear extract, 250 μL of HDAC substrate, and 1.65 mL of HPLC-grade water. The plate was then warmed in an incubator at 37° C. with a rocker platform and was incubated for 30 min. After the incubation, 10 μL of Lysine Developer solution was added to each well. The plate was kept in the incubator for an additional 30 min. Afterwards, the plate was analyzed using a BioTek Synergy H1 microplate reader, taking two independent readings per well that were subsequently averaged.

Compound: CCOC(=O)C1=CN(Cc2ccc(C(=O)NO)cc2)S(=O)(=O)N(CC2CC2)C1c1ccc(Cl)cc1Cl (stereo not drawn) [Compound 930_63, Ethyl 2-(cyclopropylmethyl)-3-(2,4-dichlorophenyl)-6-(4-(hydroxycarbamoyl)benzyl)-3,6-dihydro-2H-1,2,6-thiadiazine-4-carboxylate 1,1-dioxide]
- Effectiveness compared to MAL1-271 (Less/Similar/More) [1]: More
- Effectiveness compared to the MAL1-271 positive control [1]: more effective

Compound: CCOC(=O)C1=CN(Cc2ccc(C(=O)NO)cc2)S(=O)(=O)N(C)C1c1ccc(Cl)cc1Cl (single isomer, unassigned; (+)) [(+)-951_66, (+)-Ethyl 3-(2,4-dichlorophenyl)-6-(4-(hydroxycarbamoyl)benzyl)-2-methyl-3,6-dihydro-2H-1,2,6-thiadiazine-4-carboxylate 1,1-dioxide]
- Effectiveness compared to MAL1-271 (Less/Similar/More) [1]: Less

Compound: O=C(CCCN1C=C(C(=O)OCc2ccccc2)C(c2ccc(Cl)cc2Cl)NS1(=O)=O)OCCN1CCOCC1 (stereo not drawn) [Compound 959_74, Benzyl 3-(2,4-dichlorophenyl)-6-(4-(2-morpholinoethoxy)-4-oxobutyl)-3,6-dihydro-2H-1,2,6-thiadiazine-4-carboxylate 1,1-dioxide]
- Effectiveness compared to MAL1-271 (Less/Similar/More) [1]: Similar

Compound: CCOC(=O)C1=CN(Cc2ccc(C(=O)O)cc2)S(=O)(=O)NC1c1ccc(Cl)cc1Cl (stereo not drawn) [Compound 7h, 4-((5-(2,4-Dichlorophenyl)-4-(ethoxycarbonyl)-1,1-dioxido-5,6-dihydro-2H-1,2,6-thiadiazin-2-yl)methyl)benzoic acid]
- Effect on aggregate suppression compared to the MAL1-271 positive control [1]: less effective

Compound: O=C(O)CCCN1C=C(C(=O)O)C(c2ccc(Cl)cc2Cl)NS1(=O)=O (stereo not drawn) [Compound 9g, 6-(3-Carboxypropyl)-3-(2,4-dichlorophenyl)-3,6-dihydro-2H-1,2,6-thiadiazine-4-carboxylic acid 1,1-dioxide]
- Effect on aggregate suppression compared to the MAL1-271 positive control [1]: less effective

Compound: CCOC(=O)C1=CN(C(=O)OC(C)(C)C)S(=O)(=O)N(Cc2ccc(C(=O)OC(C)(C)C)cc2)C1c1ccc(Cl)cc1Cl (stereo not drawn) [Compound 6i, 2-(tert-Butyl) 4-ethyl 6-(4-(tert-butoxycarbonyl)benzyl)-5-(2,4-dichlorophenyl)-5,6-dihydro-2H-1,2,6-thiadiazine-2,4-dicarboxylate 1,1-dioxide]
- Effect on aggregate suppression compared to the MAL1-271 positive control [1]: less effective

Compound: O=C(CCCCCCC(=O)Nc1ccccc1)NO [SAHA, Vorinostat]
- inhibition at 0.001 µM (HDAC 6): 6%
- inhibition at 0.005 µM (HDAC 6): 25%
- inhibition at 0.01 µM (HDAC 6): 47%
- inhibition at 0.5 µM (HDAC 6): 94%
- inhibition at 0.05 µM (HDAC 8): 54%
- inhibition at 0.2 µM (HDAC 8): 67%
- inhibition at 1 µM (HDAC 8): 70%
- inhibition at 2 µM (HDAC 8): 86%
- inhibition at 5 µM (HDAC 8): 96%

Compound: CCOC(=O)C1=CN(Cc2ccc(CO)cc2)S(=O)(=O)NC1c1ccc(Cl)cc1Cl (stereo not drawn) [Compound 5h, Ethyl 3-(2,4-dichlorophenyl)-6-(4-(hydroxymethyl)benzyl)-3,6-dihydro-2H-1,2,6-thiadiazine-4-carboxylate 1,1-dioxide]
- Effect on aggregate suppression compared to the MAL1-271 positive control [1]: less effective

Compound: CCOC(=O)C1=CN(Cc2ccc(C(=O)NO)cc2)S(=O)(=O)N(C)C1c1ccc(Cl)cc1Cl (stereo not drawn) [Compound 930_62, Ethyl 3-(2,4-dichlorophenyl)-6-(4-(hydroxycarbamoyl)benzyl)-2-methyl-3,6-dihydro-2H-1,2,6-thiadiazine-4-carboxylate 1,1-dioxide]
- Effectiveness compared to MAL1-271 (Less/Similar/More) [1]: More
- Effectiveness compared to the MAL1-271 positive control [1]: more effective

Compound: O=C(O)CCCN1C=C(C(=O)OCc2ccc(Cl)cc2Cl)C(c2ccc(Cl)cc2Cl)NS1(=O)=O (stereo not drawn) [Compound 959_30]
- Effectiveness compared to MAL1-271 (Less/Similar/More) [1]: Similar

Compound: CCOC(=O)C1=CN(Cc2ccc(C(=O)NO)cc2)S(=O)(=O)NC1c1ccc(Cl)cc1Cl (stereo not drawn) [Compound 12h, Ethyl 3-(2,4-dichlorophenyl)-6-(4-(hydroxycarbamoyl)benzyl)-3,6-dihydro-2H-1,2,6-thiadiazine-4-carboxylate 1,1-dioxide]
- Percent inhibition HDAC 1-3 (HDAC 1-3): 22%

Compound: CC(/C=C/C(=O)NO)=C\[C@@H](C)C(=O)c1ccc(N(C)C)cc1 [TSA, Trichostatin A]
- Percent Inhibition (HDAC 1-3; HDAC 1-3, standard at 0.0025 uM): NIA
- Percent Inhibition (HDAC 1-3; HDAC 1-3, standard at 0.005 uM): NIA
- Percent Inhibition (HDAC 1-3; HDAC 1-3, standard at 0.05 uM): 33%
- Percent Inhibition (HDAC 1-3; HDAC 1-3, standard at 0.1 uM): 49%
- Percent Inhibition (HDAC 1-3; HDAC 1-3, standard at 1 uM): 68%

Compound: CCOC(=O)C1=CN(Cc2ccc(C(=O)NO)cc2)S(=O)(=O)N(C)C1c1ccc(Cl)cc1Cl (single isomer, unassigned; (-)) [(−)-951_67, (−)-Ethyl 3-(2,4-dichlorophenyl)-6-(4-(hydroxycarbamoyl)benzyl)-2-methyl-3,6-dihydro-2H-1,2,6-thiadiazine-4-carboxylate 1,1-dioxide]
- Effectiveness compared to MAL1-271 (Less/Similar/More) [1]: Similar

Compound: CCOC(=O)C1=CN(CCCC(=O)OC)S(=O)(=O)NC1c1ccc(Cl)cc1Cl (stereo not drawn) [Compound 5g, Ethyl 3-(2,4-dichlorophenyl)-6-(4-methoxy-4-oxobutyl)-3,6-dihydro-2H-1,2,6-thiadiazine-4-carboxylate 1,1-dioxide]
- Effect on aggregate suppression compared to the MAL1-271 positive control [1]: less effective

Compound: COC(=O)CCCN1C=C(C(=O)OCc2ccccc2)C(c2ccc(Cl)cc2Cl)NS1(=O)=O (stereo not drawn) [Compound 18g, Benzyl 3-(2,4-dichlorophenyl)-6-(4-methoxy-4-oxobutyl)-3,6-dihydro-2H-1,2,6-thiadiazine-4-carboxylate 1,1-dioxide]
- Effect on aggregate suppression compared to the MAL1-271 positive control [1]: less effective

Compound: CCOC(=O)C1=CN(CCCC(=O)NO)S(=O)(=O)NC1c1ccc(Cl)cc1Cl (stereo not drawn) [Compound 12g, Ethyl 3-(2,4-dichlorophenyl)-6-(4-(hydroxyamino)-4-oxobutyl)-3,6-dihydro-2H-1,2,6-thiadiazine-4-carboxylate 1,1-dioxide]
- Percent inhibition HDAC 1-3 (HDAC 1-3): 1%
